In ChEMBL document CHEMBL1201862, “PubChem BioAssay data set” (2004):
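Method: 48-hour compound exposure of cells in 96-well plates, five concentrations, linear interpolation of endpoints. GI50 is the concentration that inhibits growth by half.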 Activity calls are given as the source filed them. Rule as the data show it: active = GI50 up to about 1.1 µM and inactive = higher.

How the values were obtained:
Test in all cases: NCI-60 cell line screen, 48 h
SNB-75 = tested on: SNB-75
HCT-15 = tested on: HCT-15
Hs-578T = tested on: Hs-578T
SF-268 = tested on: SF-268
NCI-H226 = tested on: NCI-H226
OVCAR-3 = tested on: OVCAR-3
NCI-H460 = tested on: NCI-H460
OVCAR-5 = tested on: OVCAR-5
NCI-H23 = tested on: NCI-H23
CCRF-CEM = tested on: CCRF-CEM
TK-10 = tested on: TK-10
UACC-62 = tested on: UACC-62
MOLT-4 = tested on: MOLT-4
SW-620 = tested on: SW-620
NCI/ADR-RES = tested on: NCI/ADR-RES
NCI-H522 = tested on: NCI-H522
EKVX = tested on: EKVX
RXF 393 = tested on: RXF 393
Malme-3M = tested on: Malme-3M
COLO 205 = tested on: COLO 205
SNB-19 = tested on: SNB-19
OVCAR-4 = tested on: OVCAR-4
BT-549 = tested on: BT-549
A549 = tested on: A549
MDA-MB-435 = tested on: MDA-MB-435
SK-MEL-28 = tested on: SK-MEL-28
LOX IMVI = tested on: LOX IMVI
HCC 2998 = tested on: HCC 2998
HOP-92 = tested on: HOP-92
OVCAR-8 = tested on: OVCAR-8
RPMI-8226 = tested on: RPMI-8226
MCF7 = tested on: MCF7
SN12C = tested on: SN12C
HOP-62 = tested on: HOP-62
SK-MEL-2 = tested on: SK-MEL-2
786-0 = tested on: 786-0
SK-MEL-5 = tested on: SK-MEL-5
T47D = tested on: T47D
KM12 = tested on: KM12
UO-31 = tested on: UO-31
U-251 = tested on: U-251
A498 = tested on: A498
CAKI-1 = tested on: CAKI-1
MDA-N = tested on: MDA-N
DU-145 = tested on: DU-145
SF-539 = tested on: SF-539
K562 = tested on: K562
ACHN = tested on: ACHN
SF-295 = tested on: SF-295
PC-3 = tested on: PC-3
SK-OV-3 = tested on: SK-OV-3
MDA-MB-231 = tested on: MDA-MB-231
M14 = tested on: M14
IGROV-1 = tested on: IGROV-1
HCT-116 = tested on: HCT-116
HT-29 = tested on: HT-29
UACC-257 = tested on: UACC-257
SR = tested on: SR
HL-60 = tested on: HL-60

## CCCCN1C(=O)c2c(-c3sccc3N)sc(-c3sccc3N)c2C1=O
SNB-75
  GI50: 10.4 µM (inactive)
HCT-15
  GI50: > 34.9 µM
Hs-578T
  GI50: 16.9 µM (inactive)
SF-268
  GI50: 12.3 µM (inactive)
NCI-H226
  GI50: 0.713 µM (active)
OVCAR-3
  GI50: 16 µM (inactive)
NCI-H460
  GI50: 26.1 µM (inactive)
OVCAR-5
  GI50: 21.5 µM (inactive)
NCI-H23
  GI50: 28 µM (inactive)
CCRF-CEM
  GI50: 4.05 µM (inactive)
TK-10
  GI50: 22.3 µM (inactive)
UACC-62
  GI50: 19.3 µM (inactive)
MOLT-4
  GI50: 2.8 µM (inactive)
SW-620
  GI50: > 32.6 µM (inactive)
NCI/ADR-RES
  GI50: 21.3 µM (inactive)
NCI-H522
  GI50: 14.1 µM (inactive)
EKVX
  GI50: 26.9 µM (inactive)
RXF 393
  GI50: 12.6 µM (inactive)
Malme-3M
  GI50: 21.6 µM (inactive)
COLO 205
  GI50: 15.4 µM (inactive)
SNB-19
  GI50: 18.9 µM (inactive)
OVCAR-4
  GI50: 10.9 µM (inactive)
BT-549
  GI50: 29.4 µM (inactive)
A549
  GI50: 24.1 µM (inactive)
MDA-MB-435
  GI50: 30.8 µM (inactive)
SK-MEL-28
  GI50: 7.98 µM (inactive)
LOX IMVI
  GI50: 30.7 µM (inactive)
HCC 2998
  GI50: 73.6 µM (inactive)
HOP-92
  GI50: 52 µM (inactive)
OVCAR-8
  GI50: 12.3 µM (inactive)
RPMI-8226
  GI50: 4.47 µM (inactive)
MCF7
  GI50: 11.2 µM (inactive)
SN12C
  GI50: 19 µM (inactive)
HOP-62
  GI50: 14.7 µM (inactive)
SK-MEL-2
  GI50: 32.7 µM (inactive)
786-0
  GI50: 7.85 µM (inactive)
SK-MEL-5
  GI50: 29.8 µM (inactive)
T47D
  GI50: 14.2 µM (inactive)
KM12
  GI50: 44.6 µM (inactive)
UO-31
  GI50: 6.84 µM (inactive)
U-251
  GI50: 12.9 µM (inactive)
A498
  GI50: 23.4 µM (inactive)
CAKI-1
  GI50: 23.8 µM (inactive)
MDA-N
  GI50: 4.94 µM (inactive)
DU-145
  GI50: 21.4 µM (inactive)
SF-539
  GI50: 12.4 µM (inactive)
K562
  GI50: 16.3 µM (inactive)
ACHN
  GI50: 15.7 µM (inactive)
SF-295
  GI50: 14.5 µM (inactive)
PC-3
  GI50: 14.8 µM (inactive)
SK-OV-3
  GI50: 10.6 µM (inactive)
MDA-MB-231
  GI50: 30.8 µM (inactive)
M14
  GI50: 8.38 µM (inactive)
IGROV-1
  GI50: 23 µM (inactive)
HCT-116
  GI50: 21.7 µM (inactive)
HT-29
  GI50: 14.2 µM (inactive)
UACC-257
  GI50: 56.1 µM (inactive)
SR
  GI50: 1.98 µM (inactive)

## CC(C)(CO)CNc1nc(N)nc(Cl)c1C=O
SNB-75
  GI50: 35.6 µM (inactive)
HCT-15
  GI50: 15.3 µM
Hs-578T
  GI50: 22.9 µM (inactive)
SF-268
  GI50: 14 µM (inactive)
NCI-H226
  GI50: 50.8 µM (inactive)
OVCAR-3
  GI50: 25.6 µM (inactive)
NCI-H460
  GI50: 36.4 µM (inactive)
OVCAR-5
  GI50: > 100 µM (inactive)
NCI-H23
  GI50: 40.4 µM (inactive)
CCRF-CEM
  GI50: 20.6 µM (inactive)
TK-10
  GI50: 46.9 µM (inactive)
UACC-62
  GI50: 12.5 µM (inactive)
MOLT-4
  GI50: 19.8 µM (inactive)
SW-620
  GI50: 33.5 µM (inactive)
NCI/ADR-RES
  GI50: 42.2 µM (inactive)
NCI-H522
  GI50: 7.67 µM (inactive)
EKVX
  GI50: 45.9 µM (inactive)
RXF 393
  GI50: 17.6 µM (inactive)
Malme-3M
  GI50: 39.7 µM (inactive)
COLO 205
  GI50: 25.5 µM (inactive)
OVCAR-4
  GI50: 36.1 µM (inactive)
BT-549
  GI50: 41.1 µM (inactive)
A549
  GI50: 71.1 µM (inactive)
MDA-MB-435
  GI50: 25.9 µM (inactive)
SK-MEL-28
  GI50: 24.4 µM (inactive)
LOX IMVI
  GI50: 16.4 µM (inactive)
HCC 2998
  GI50: 4.51 µM (inactive)
HOP-92
  GI50: 26.2 µM (inactive)
OVCAR-8
  GI50: 22.5 µM (inactive)
RPMI-8226
  GI50: 60.5 µM (inactive)
MCF7
  GI50: 50.4 µM (inactive)
SN12C
  GI50: 18.9 µM (inactive)
HOP-62
  GI50: 23.2 µM (inactive)
SK-MEL-2
  GI50: 16.8 µM (inactive)
786-0
  GI50: 79.3 µM (inactive)
SK-MEL-5
  GI50: 30.7 µM (inactive)
HL-60
  GI50: 3.9 µM (inactive)
T47D
  GI50: 42.9 µM (inactive)
KM12
  GI50: 90.4 µM (inactive)
UO-31
  GI50: 62.1 µM (inactive)
U-251
  GI50: 32.8 µM (inactive)
A498
  GI50: > 100 µM (inactive)
CAKI-1
  GI50: 11.9 µM (inactive)
MDA-N
  GI50: 25.5 µM (inactive)
DU-145
  GI50: 94 µM (inactive)
SF-539
  GI50: 54.2 µM (inactive)
K562
  GI50: 5.19 µM (inactive)
ACHN
  GI50: 48.8 µM (inactive)
SF-295
  GI50: 42.4 µM (inactive)
PC-3
  GI50: 16.8 µM (inactive)
MDA-MB-231
  GI50: 30.1 µM (inactive)
IGROV-1
  GI50: 20.1 µM (inactive)
HCT-116
  GI50: 20 µM (inactive)
HT-29
  GI50: 45.2 µM (inactive)
UACC-257
  GI50: 35.4 µM (inactive)
SR
  GI50: 17.5 µM (inactive)

## CCOC(=O)c1cc(C2=CCNC2=O)c(-c2cc(C)no2)[nH]1
SNB-75
  GI50: 34 µM (inactive)
HCT-15
  GI50: 92.9 µM
Hs-578T
  GI50: 95.5 µM (inactive)
SF-268
  GI50: > 100 µM (inactive)
NCI-H226
  GI50: > 100 µM (inactive)
OVCAR-3
  GI50: 45.6 µM (inactive)
NCI-H460
  GI50: 63.4 µM (inactive)
OVCAR-5
  GI50: > 100 µM (inactive)
NCI-H23
  GI50: > 100 µM (inactive)
CCRF-CEM
  GI50: 34 µM (inactive)
TK-10
  GI50: > 100 µM (inactive)
UACC-62
  GI50: 39.1 µM (inactive)
MOLT-4
  GI50: 25.1 µM (inactive)
SW-620
  GI50: 80.2 µM (inactive)
NCI/ADR-RES
  GI50: 30.5 µM (inactive)
NCI-H522
  GI50: 16.7 µM (inactive)
EKVX
  GI50: 59.4 µM (inactive)
RXF 393
  GI50: 49.2 µM (inactive)
Malme-3M
  GI50: > 100 µM (inactive)
COLO 205
  GI50: 54.8 µM (inactive)
SNB-19
  GI50: > 100 µM (inactive)
OVCAR-4
  GI50: 49.5 µM (inactive)
BT-549
  GI50: > 100 µM (inactive)
A549
  GI50: 37.4 µM (inactive)
MDA-MB-435
  GI50: > 100 µM (inactive)
SK-MEL-28
  GI50: 92.5 µM (inactive)
LOX IMVI
  GI50: 86.5 µM (inactive)
HCC 2998
  GI50: > 100 µM (inactive)
OVCAR-8
  GI50: 45 µM (inactive)
RPMI-8226
  GI50: 36.7 µM (inactive)
MCF7
  GI50: 70 µM (inactive)
SN12C
  GI50: > 100 µM (inactive)
HOP-62
  GI50: 73.3 µM (inactive)
SK-MEL-2
  GI50: > 100 µM (inactive)
786-0
  GI50: 40 µM (inactive)
SK-MEL-5
  GI50: 66.7 µM (inactive)
HL-60
  GI50: 22.3 µM (inactive)
T47D
  GI50: 30.8 µM (inactive)
KM12
  GI50: 59.8 µM (inactive)
UO-31
  GI50: 27.7 µM (inactive)
U-251
  GI50: 62.5 µM (inactive)
A498
  GI50: > 100 µM (inactive)
CAKI-1
  GI50: > 100 µM (inactive)
MDA-N
  GI50: 94.6 µM (inactive)
DU-145
  GI50: > 100 µM (inactive)
SF-539
  GI50: > 100 µM (inactive)
K562
  GI50: 34.8 µM (inactive)
ACHN
  GI50: 52.1 µM (inactive)
SF-295
  GI50: 29.8 µM (inactive)
PC-3
  GI50: 55.6 µM (inactive)
SK-OV-3
  GI50: 31.3 µM (inactive)
MDA-MB-231
  GI50: 36.4 µM (inactive)
M14
  GI50: 51.1 µM (inactive)
IGROV-1
  GI50: 75.3 µM (inactive)
HCT-116
  GI50: 31.1 µM (inactive)
HT-29
  GI50: 43.5 µM (inactive)
UACC-257
  GI50: > 100 µM (inactive)
SR
  GI50: 33.2 µM (inactive)
